Experimental data reported in patent publication US5166214A, “Use of imidazoles for the treatment of atherosclerosis” (priority 1990, dated 1992).

Each compound was assayed on murine macrophage-like cell line J774.A1 (assay: Inhibition of cholesterol esterification in mammalian cells (macrophage assay)). Conditions: J774.A1 macrophages loaded with ac-LDL, 14C-oleic acid; read-out: Cholesterol Esterification IC50.
Assay type: cell-based
Procedure: B. Assay of the Inhibition of Cholesterol Esterification in Mammalian Cells
The esterification of cholesterol was determined in the murine macrophage-like cell line J774.A1. Cells were seeded in 35 mm wells at a density of 300,000 cells per well in 2 mls of Dulbecco's Eagle Medium (DMEM) supplemented with 10% fetal bovine serum (FBS). Cells were incubated at 37° C. in an atmosphere of 5% CO2 and 93% humidity. After 24 hours the media was changed to 0.68 mls 10% FBS-DMEM containing 34 μg of acetylated human low density lipoprotein (ac-LDL) to increase the intracellular concentration of cholesterol and promote esterification. At 41 hours, various inhibitors were added to the cells in DMSO (10 μl/ml maximum). At 43 hours, the cells were pulsed with 0.1 mM ^14 C-oleic acid (10,000 dpm/nmol) complexed with BSA (bovine serum albumin) to follow cholesterol ester formation. The experiment was terminated at 45 hours by washing the monolayers 3 times with 3 ml of Tris-buffered saline at 4° C. The lipids were extracted by incubating the monolayers with 1.5 ml of hexane:isopropanol (3:2, v/v) for 30 min. under gentle agitation. During this period, 10,000 dpm 3H-cholesteryl linoleate and 10 μg of cholesteryl oleate were added as an internal standard and carrier respectively. The organic solvent was removed and the cells were washed with an additional 1.0 ml of hexane: isopropanol which was combined with the original extract. The cells were allowed to dry overnight, digested with 1.5 ml of 0.2N sodium hydroxide for 1 hour and an aliquot of the solubilized protein used for protein determination using the Lowry method. The organic extract was taken to dryness, the residue resuspended in 100 μl of chloroform and the lipids separated on silica gel impregnated glass fiber plates using a hexane:diethylether:acetic acid (170:30:1, v/v/v) solvent system. Individual lipids were visualized with iodine and the cholesteryl ester spot cut out and transferred to scintillation vials to determine the amount of radioactivity. The conversion of oleic acid to cholesteryl ester in the control averaged 0.54 […] and was increased upon the addition of ac-LDL to about 10.69±0.69 […]. […] It should be noted that many of the intermediates had inhibitory activity in the in vitro ACAT assay and in the macrophage assay.

SMILES | IC50 [nM]
CCCCCCCN(CCCCCCCCSc1nc(-c2ccccc2)c(-c2ccccc2)[nH]1)C(=O)Nc1ccc(F)cc1F [Example 3, N'-(2,4-difluorophenyl)-N-[8-(4,5-diphenyl-1H-imidazol-2-ylthio)octyl]-N-heptylurea] | 17500
CCCCCCCN(CCCCCSc1nc(-c2ccccc2)c(-c2ccccc2)n1C)C(=O)Nc1ccc(F)cc1F [Example 6, N'-(2.4-difluorophenyl)-N-heptyl-N-[5-(1-methyl-4,5-diphenyl-1H-imidazol-2-ylthio)pentyl]urea] | 3800
CCCCCCCN(CCCCCSc1nc(-c2ccccc2)c(-c2ccccc2)[nH]1)C(=O)NCCC [Example 8, N-[5-(4,5-diphenyl-1H-imidazol-2-ylthio)pentyl]-N-heptyl-N'-propylurea] | 500
CCCCCCCN(CCCCCSc1nc(-c2ccccc2)c(-c2ccccc2)[nH]1)C(=O)Nc1c(F)cc(F)cc1F [Example 71, N-[5-(4,5-diphenyl-1H-imidazol-2-ylthio)pentyl]-N-heptyl-N'-(2,4,6-trifluorophenyl)urea] | 1900
CCCCCCCN(CCCCCSc1nc(-c2ccccc2)c(-c2ccccc2)[nH]1)C(=O)NC1CCCCC1 [Example 94, N'-cyclohexyl-N-[5-(4,5-diphenyl-1H-imidazol-2-ylthio)pentyl]-N-heptylurea] | 100
CCCCCCCN(CCCCCSc1nc(-c2ccccc2)c(-c2ccccc2)[nH]1)C(=O)NC(C)C [Example 105, N-[5-(4,5-diphenyl-1H-imidazol-2-ylthio)pentyl]-N-heptyl-N'-(1-methylethyl)urea] | 300
CCCCCCCN(CCCCCSc1nc(-c2ccccc2)c[nH]1)C(=O)Nc1ccc(F)cc1F [Example 160, N'-(2,4-difluorophenyl)-N-heptyl-N-[5-(4-phenyl-1H-imidazol-2-ylthio)pentyl]urea] | 1600
CCCCCCCN(CCSc1nc(-c2ccccc2)c(-c2ccccc2)[nH]1)C(=O)Nc1ccc(F)cc1F [Example 189, N'-(2,4-difluorophenyl)-N-[2-(4,5-diphenyl-1H-imidazol-2-ylthio)ethyl]-N-heptylurea] | 2200
CCCN(CCCCCSc1nc(-c2ccccc2)c(-c2ccccc2)[nH]1)C(=O)Nc1ccc(F)cc1F [Example 190] | 2200
CCCCCCCN(CCCCCSc1nc(-c2ccccc2)c(-c2ccccc2)[nH]1)C(=O)Nc1ccc(-c2ccccc2)cc1 [Example 192, N'-[(1,1'-biphenyl)-4-yl]-N-[5-(4,5-diphenyl-1H-imidazol-2-ylthio)pentyl]-N-heptylurea] | 2000
CCCCCCCN(CCCCCSc1nc(-c2ccc(C(C)(C)C)cc2)c(-c2ccc(C(C)(C)C)cc2)[nH]1)C(=O)Nc1ccc(F)cc1F [Example 203] | 50000
CCCCCCCCNC(=O)N(CCCCCSc1nc(-c2ccccc2)c(-c2ccccc2)[nH]1)c1ccc(F)cc1F [Example 206, N-(2,4-difluorophenyl)-N-[5-(4,5-diphenyl-1H-imidazol-2-ylthio)pentyl]-N'-octylurea] | 400
CCCCCCCCNC(=O)N(CCCCCSc1nc(-c2ccccc2)c(-c2ccccc2)[nH]1)c1c(F)cc(F)cc1F [Example 208] | 2800
CCCCCCCN(CCCCCSc1nc(-c2ccccc2)cn1-c1ccccc1)C(=O)Nc1ccc(F)cc1F [Example 259] | 900
CCCCCCCN(CCCCCSc1ncc(-c2ccccc2)n1-c1ccccc1)C(=O)Nc1ccc(F)cc1F [Example 260] | 6000
CCCCCCCN(CCCCCSc1nc(-c2ccccc2)c(-c2ccccc2)[nH]1)C(=S)Nc1ccc(F)cc1F [Example 276, N'-(2,4-difluorophenyl)-N-[5-(4,5-diphenyl-1H-imidazol-2-ylthio)pentyl]-N-heptylthiourea] | 6100
CCCCCCCN(CCCCC[S+]([O-])c1nc(-c2ccccc2)c(-c2ccccc2)[nH]1)C(=O)Nc1ccc(F)cc1F (centres unmarked) [Example 278, N'-(2,4-difluorophenyl)-N-[5-(4,5-diphenyl-1H-imidazol-2-ylsulfinyl)pentyl]-N-heptylurea] | 1200
CCCCCCCN(CCCCCS(=O)(=O)c1nc(-c2ccccc2)c(-c2ccccc2)[nH]1)C(=O)Nc1ccc(F)cc1F [Example 281, N'-(2,4-difluorophenyl)-N-[5-[(4,5-diphenyl-1H-imidazol-2-yl)sulfonyl]pentyl]-N-heptylurea] | 3500
CCCCCCCN(CCCCCSc1nc(-c2ccccc2)c(-c2ccccc2)[nH]1)C(=S)Nc1c(F)cc(F)cc1F [Example 298, N-[5-(4,5-diphenyl-1H-imidazol-2-ylthio)pentyl]-N-heptyl-N'-(2,4,6-trifluorophenyl)thiourea] | 2500
CCCCCCCN(CCCCCNc1nc(-c2ccccc2)c(-c2ccccc2)[nH]1)C(=O)Nc1ccc(F)cc1F [Example 338, N'-(2,4-difluorophenyl)-N-[5-(4,5-diphenyl-1H-imidazol-2-ylamino)pentyl]-N-heptylurea] | 3400
CCCCCCCN(CCCCCCc1nc(-c2ccccc2)c(-c2ccccc2)[nH]1)C(=O)Nc1ccc(F)cc1F [Example 339, N'-(2,4-difluorophenyl)-N-[6-(4,5-diphenyl-1H-imidazol-2-yl)hexyl]-N-heptylurea] | 4400
CCCCCCCN(CCCCCSc1nc(-c2ccccc2)c(-c2ccccc2)[nH]1)C(=O)Cc1ccc(F)cc1F [Example 340, 2,4-difluoro-N-[(5-(4,5-diphenyl-1H-imidazol-2-ylthio)pentyl)]-N-heptylbenzeneacetamide] | 200
CCCCCCCN(CCCCCSc1nc(-c2ccccc2)c(-c2ccccc2)[nH]1)C(=O)Cc1ccc(-c2ccccc2)cc1 [Example 343, N-[5-(4,5-diphenyl-1H-imidazol-2-ylthio)pentyl]-N-heptyl[1,1'-biphenyl]-4-acetamide] | 1100
CCCCCCCN(CCCCCSc1nc(-c2ccccc2)c(-c2ccccc2)[nH]1)C(=O)CC1CCCCC1 [Example 344] | 400
CCCCCCCN(CCCCCSc1nc(-c2ccccc2)c(-c2ccccc2)[nH]1)C(=O)c1ccc(F)cc1F [Example 345] | 300
CCCCCCCN(CCCCCSc1nc(-c2ccccc2)c(-c2ccccc2)[nH]1)C(=O)c1ccccc1 [Example 346] | 500
CCCCCCCN(CCCCCSc1nc(-c2ccccc2)c(-c2ccccc2)[nH]1)C(=O)OC1CCCCC1 [Example 401, cyclohexyl [5-(4,5-diphenyl-1H-imidazol-2-ylthio)pentyl]heptylcarbamate] | 400
CCCCCCCN(CCCCCSc1nc(-c2ccccc2)c(-c2ccccc2)[nH]1)C(=O)Oc1ccccc1 [Example 402, Phenyl [5-(4,5-diphenyl-1H-imidazol-2-ylthio)pentyl]heptylcarbamate] | 400
CCCCCCCN(CCCCCSc1nc(-c2ccccc2)c(-c2ccccc2)[nH]1)C(=N)Nc1ccccc1 [Example 499, N-[5-(4,5-diphenyl-1H-imidazol-2-ylthio)-pentyl]-N-heptyl-N'-phenylguanidine] | 3400
